The source of these data is paper PMC9703632, “The noncatalytic regions of the tyrosine kinase Tnk1 are important for activity and substrate specificity” (The Journal of Biological Chemistry, 2022).

Series [1] concerns the target T1, Tnk1 (thirty-eight negative kinase 1) (Homo sapiens, UniProt Q13470).
T1 construct: Tnk1^ΔCT, residues 1-510 (SAM, kinase and SH3 domains), N-terminal 6x-His and GST tags, Sf9
T1 sequence (Q13470 1-510 isoform Q13470-2): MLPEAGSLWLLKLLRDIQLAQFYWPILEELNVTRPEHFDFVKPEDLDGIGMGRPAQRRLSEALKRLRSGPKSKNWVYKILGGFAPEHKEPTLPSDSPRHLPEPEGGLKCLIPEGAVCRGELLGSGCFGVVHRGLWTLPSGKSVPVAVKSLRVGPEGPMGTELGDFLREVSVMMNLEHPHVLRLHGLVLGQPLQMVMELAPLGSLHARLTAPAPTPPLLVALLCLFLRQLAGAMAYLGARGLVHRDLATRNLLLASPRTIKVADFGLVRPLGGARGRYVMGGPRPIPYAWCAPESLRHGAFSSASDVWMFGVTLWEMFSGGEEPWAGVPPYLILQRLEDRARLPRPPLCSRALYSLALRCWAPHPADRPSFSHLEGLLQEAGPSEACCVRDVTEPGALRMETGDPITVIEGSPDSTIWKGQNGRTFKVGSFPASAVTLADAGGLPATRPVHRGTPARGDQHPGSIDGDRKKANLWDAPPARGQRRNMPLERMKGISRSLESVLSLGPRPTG
Kind of series: single-concentration ([…]) inhibition, […]-ATP phosphocellulose kinase assay, WASP peptide. The series is classed as biochemical. Conditions: read-out: % inhibition at 10 μM.

Series [2] deals with T1, Tnk1 (thirty-eight negative kinase 1). Kind of series: […]-ATP phosphocellulose kinase assay, WASP peptide, dose-response. The series is classed as biochemical.
Substrate in the series “purified protein”: Nc1ncnc2c1ncn2[C@@H]1O[C@H](COP(=O)(O)OP(=O)(O)OP(=O)(O)O)[C@@H](O)[C@H]1O
The series is described as follows: purified protein. Format: biochemical, Homo sapiens. Particulars: MgCl2.

On to `C#Cc1cccc(Nc2ncnc3cc(OCCOC)c(OCCOC)cc23)c1` [erlotinib], for which the inhibition at 10 µM in series [1] fell in the range of 30 to 40%. In turn, `CN1CCN(c2ccc(Nc3ncc(Cl)c(NC[C@H]4CCCO4)n3)cc2)CC1` [(R)-9b] showed an IC50 in series [2] of 470 nM. `COc1cc2ncnc(Nc3ccc(F)c(Cl)c3)c2cc1OCCCN1CCOCC1` [gefitinib]: the inhibition at 10 µM in series [1] was in the range of 30 to 40%.

B1: Tnk1 (thirty-eight negative kinase 1) (Homo sapiens) (protein)
chain: MLPEAGSLWLLKLLRDIQLAQFYWPILEELNVTRPEHFDFVKPEDLDGIGMGRPAQRRLSEALKRLRSGPKSKNWVYKILGGFAPEHKEPTLPSDSPRHLPEPEGGLKCLIPEGAVCRGELLGSGCFGVVHRGLWTLPSGKSVPVAVKSLRVGPEGPMGTELGDFLREVSVMMNLEHPHVLRLHGLVLGQPLQMVMELAPLGSLHARLTAPAPTPPLLVALLCLFLRQLAGAMAYLGARGLVHRDLATRNLLLASPRTIKVADFGLVRPLGGARGRYVMGGPRPIPYAWCAPESLRHGAFSSASDVWMFGVTLWEMFSGGEEPWAGVPPYLILQRLEDRARLPRPPLCSRALYSLALRCWAPHPADRPSFSHLEGLLQEAGPSEACCVRDVTEPGALRMETGDPITVIEGSPDSTIWKGQNGRTFKVGSFPASAVTLADAGGLPATRPVHRGTPARGDQHPGSIDGDRKKANLWDAPPARGQRRNMPLERMKGISRSLESVLSLGPRPTG
notes: Tnk1^ΔCT, residues 1-510 (SAM, kinase and SH3 domains), N-terminal 6x-His and GST tags, Sf9
In the case of B1, in the series “purified protein”, the Km was 70 µM.

The term inhibition denotes the change of the read-out against control, counted positive when it falls. One may read the IC50 as the midpoint of a concentration-inhibition curve. A low value points to greater potency in that assay. By Km is commonly meant the concentration of substrate that gives half-maximal velocity.
